One substance from paper PMC10460880, “Cathepsin K‐Activated Probe for Fluoro‐Photoacoustic Imaging of Early Osteolytic Metastasis” (Advanced Science, 2023) can be followed below.

For data set [1], the system named is OCs. The data set is described as follows: Cell selectivity experiment, osteoclasts. It is filed as cell-based. The settings on record: n = 3.
Data set [2] deals with BMMs, MDA-MB-231 cells, MCF-7 cells, neutrophils. The data set is described as follows: Cell selectivity experiment, other cells. It is filed as cell-based. The settings on record: MDA-MB-231, MCF-7, neutrophils, n = 3.
Data set [3] has as its system CTSK + 2-CP; CTSB, FAP-α, Casp-3, APN, GGT, ALP, ACE, trypsin. The data set is described as follows: Selectivity study: fluorescence activation with inhibited CTSK or other proteases. It is filed as biochemical. The settings on record: probe 10 μM, 1 h; 2-CP 50 mM pre-treatment 30 min; n = 3. Here is the method:
In vitro analysis of cathepsin K (CTSK) activation, selectivity, and sensitivity studies.
Probe CTSK-APPA, D-CTSK-APPA, or CTSK-APP (10 μM) was incubated with CTSK in MES buffer (50 mM, pH 6.0) containing 0.1% DMSO, 2 mM ethylene diamine tetraacetic acid (EDTA), 4 mM dithiothreitol (DTT) and 0.15% chondroitin sulfate (CS) at 37 °C for 1 h. After incubation at the indicated time, UV-Vis spectra, fluorescence spectra, fluorescence images, and PA images of the solutions were recorded. Probe CyP (10 μM) incubated with CTSK (200 ng/mL) for 1 h was further analyzed by HPLC. For selectivity study, CTSK-APPA (10 μM) in a 96-well plate was incubated with CTSK (100 ng/mL), CTSB (100 ng/mL), FAP-α (9×10-4 U/mL), Caspase-3 (100 ng/mL), APN (100 ng/mL), GGT (0.1 U/mL), ALP (0.1 U/mL), ACE (1×10-3 U/mL), and trypsin (10 U/L) at […] for 1 h. For the inhibitory experiment, CTSK (100 ng/mL) was treated with CTSK inhibitor 2-Cyanopyrimidine (2-CP, 50 mM) at 37°C for 30 min. […]
Kinetic assay. […] Fluorescence intensities of solution were measured for quantification analyses by a microplate reader (BioTek, Synergy 2) with excitation at 690 nm and emission at 720 nm. The kinetic parameters were calculated according to the Michaelis-Menten equation shown below: V = Vmax×[S]/(Km + [S]), where V is initial velocity, and [S] is substrate concentration. […]

A short description of data set [4]: Bone marrow toxicity analysis (blood RBC and WBC counts). The settings on record: i.v. 50 μM, 200 μL; blood 24 h post-injection; n = 3. It is filed as in vivo, BALB/c nude mice. The method, then: Bone marrow toxicity analysis. The bone marrow toxicity of CTSK-APPA and CTSK-APP was assessed by blood analyses in mice. SPF grade 4-week-old BALB/c nude mice were intravenously injected with CTSK-APPA(50 μM, 200 μL) or saline (200 μL). The blood samples were collected in anticoagulant tubes at 24 h post-injection and stored at 4°C. The red blood count (RBC) and white blood count (WBC) were further measured.
Renal clearance efficiency studies. SPF grade 4-week-old BALB/c nude mice were intravenously injected with CTSK-APPA or CTSK-APP (50 μM, 200 μL) and placed in metabolic cages. The urine was collected at 3, 6, and 24 h post-injection, and then centrifuged at 5000 r.p.m. for 5 min. The supernatants containing excreted probes were quantified by using a UV-vis absorption spectrometer. […]
In vivo Bioluminescence, DR, CT, and MR imaging. […] Then BL imaging was recorded on an IVIS Spectrum imaging system at 10 min post-injection under anesthesia using isoflurane. All data were analyzed with the Living Image software. DR, CT, and MR imaging were recorded on an IVIS Spectrum imaging system, a single-photon emission computed tomography imaging system, and a preclinical magnetic resonance solution system, respectively.
Real-time tumor imaging. […] Fluorescence and PA images were acquired at 0, 1, 2, 4, 8, 12, and 24 h post-injection. […]
Histology. […] Images were captured by using a fluorescence microscope. […]

With Cbz‐Leu‐Arg‐OH [CTSK-APPA], the “NIR fluorescence after incubation with OCs” value in data set [1] is “strong NIR fluorescence signals”. The “NIR fluorescence activation by other cells” value in data set [2] is listed as “did not induce NIR fluorescence activation”. In addition, in data set [3], the “fluorescence activation at 720 nm by CTSK with inhibitor 2-CP or by other proteases” value is given as “almost no fluorescence activation”. In data set [4], the “red blood cell (RBC) and white blood cell (WBC) counts vs saline group” value is “No apparent differences”.
